These results are taken from US8735395B2, “Protease inhibitors” (Medivir AB, priority 2008, dated 2014).

A value given as a limit tells only on which side of the number the result lay.

The conditions of data set [1]: reference markers for the Caco-2 assay; cited from earlier work.
Data set [2] concerns the target human recombinant cathepsin K (Homo sapiens (Human), UniProt P43235). The data set can be described thus: Determination of cathepsin K proteolytic catalytic activity (Ki). Type of data set: biochemical. How it is done: Determination of Cathepsin K Proteolytic Catalytic Activity
Convenient assays for cathepsin K are carried out using human recombinant enzyme, such as that described in PDB.
The recombinant cathepsin K can be expressed in a variety of commercially available expression systems including E coli, Pichia and Baculovirus systems. The purified enzyme is activated by removal of the prosequence by conventional methods.
The enzyme concentration used was 5 nM. The stock substrate solution was prepared at 10 mM in DMSO. Screens were carried out at a fixed substrate concentration of 60 μM and detailed kinetic studies with doubling dilutions of substrate from 250 μM. The total DMSO concentration in the assay was kept below 3%. All assays were conducted at ambient temperature. Product fluorescence (excitation at 390 nm, emission at 460 nm) was monitored with a Labsystems Fluoroskan Ascent fluorescent plate reader. Product progress curves were generated over 15 minutes following generation of AMC product.
(§1) Potential inhibitors are screened using the above assay with variable concentrations of test compound. Reactions were initiated by addition of enzyme to buffered solutions of substrate and inhibitor. Ki values were calculated according to equation 1.
where v0 is the velocity of the reaction, V is the maximal velocity, S is the concentration of substrate with Michaelis constant of KM, and I is the concentration of inhibitor.

The target of the next data set is human cathepsin L (Homo sapiens (Human), UniProt P07711). The data set can be described thus: Cathepsin L Ki. The class given is biochemical. How it is done:
The procedure above with the following amendments is used for the determination of Ki for cathepsin L.
The enzyme is commercially available human cathepsin L (for example Calbiochem). The substrate is H-D-Val-Leu-Lys-AMC available from Bahcem. The assay buffer is 100 mM sodium acetate 1 mM EDTA, pH5.5) The DMSO stock (10 mM in 100% DMSO) is diluted to 10% in assay buffer. Enzyme is prepared at 5 nM concentration in assay buffer plus 1 mM dithiothreitol just before use. 2 ul of 10 mM inhibitor made up in 100% DMSO is dispensed into row A. 10 μl of 50 μM substrate (=1/200 dilution of 10 mM stock in DMSO, diluted in assay buffer)
as §1

A further data set addresses human cathepsin S (Homo sapiens (Human), UniProt P25774). The data set can be described thus: Cathepsin S Ki determination. The class given is biochemical. How it is done: 280 μl/well of 12.5% DMSO are added to rows B-H of two columns of a 96 deep well polypropylene plate. […] 200 μl/well of assay buffer is added to columns 1 and 6. […] Mix row A using a multichannel pipette and double dilute to row G. Mix row H and read in the fluorescent spectrophotometer. […] The second test compound is added to column 6 of the top row, the third to column 1 of the second row etc. Add 1 μl of comparator to column 6 of the bottom row. Mix column 1 and double dilute to column 5. Mix column 6 and double dilute to column 10. Using an 8-channel multistepping pipette set to 5×10 μl, distribute 10 μl/well of substrate to the 384 well assay plate. Distribute the first column of the substrate dilution plate to all columns of the assay plate starting at row A. The tip spacing of the multichannel pipette will correctly skip alternate rows. Distribute the second column to all columns starting at row B. Using a 12-channel multistepping pipette set to 4×10 μl, distribute 10 μl/well of inhibitor to the 384 well assay plate. Distribute the first row of the inhibitor dilution plate to alternate rows of the assay plate starting at A1. The tip spacing of the multichannel pipette will correctly skip alternate columns. […] Mix 20 ml assay buffer and 20 μl 1M DTT. […] Using the a distributor such as a Multidrop 384, add 30 μl/well to all wells of the assay plate and read in fluorescent spectrophotomoter such as an Ascent. Fluorescent readings, (excitation and emission wavelengths 390 nm and 460 nm respectively, set using bandpass filters) reflecting the extent of enzyme cleavage of the fluorescent substrate, notwithstanding the inhibitor, are linear rate fitted for each well. […] Potential inhibitors are screened using the above assay with variable concentrations of test compound. Reactions were initiated by addition of enzyme to buffered solutions of substrate and inhibitor.

Data set [3] in a line: Metabolic stability in whole blood (CLint). The class given is in vitro ADME. How it is done:
(§2) Alternatively, an analogous stability assay is carried out in human or monkey whole blood and/or commercially available liver microsomes, such as XEN 025.

Data set [4] is described as follows: Metabolic stability in liver microsomes (HLM CLint). The class given is in vitro ADME. To be noted: human. How it is done:
as §2

Data set [5] can be described thus: In vivo mouse PK, oral administration (FIG. 1). Conditions: male C57BI mice, oral 60 μmol/kg in 1% Methocel A4C; compared with Example 2 of WO2008 007107. The source says: FIG. 1 depicts plasma concentration against time for male C57BI mice orally administered a compound of the invention or a compound of the prior art.
Various embodiments of the invention will now be described by way of illustration only with reference to the following Examples and FIG. 1 which depicts plasma concentration against time for male C57BI mice orally administered a compound of the invention or a compound of the prior art.

The nature of a further data set: Caco-2 permeability. To be noted: human.

human cathepsin L, sequence (P07711 114-333): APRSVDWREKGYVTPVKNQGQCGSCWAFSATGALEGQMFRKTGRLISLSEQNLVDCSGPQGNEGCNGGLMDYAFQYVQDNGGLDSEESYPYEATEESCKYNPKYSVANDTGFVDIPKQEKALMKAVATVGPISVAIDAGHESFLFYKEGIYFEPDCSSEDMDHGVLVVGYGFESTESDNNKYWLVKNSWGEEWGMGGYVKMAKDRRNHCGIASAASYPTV
human recombinant cathepsin K, sequence (P43235 115-329): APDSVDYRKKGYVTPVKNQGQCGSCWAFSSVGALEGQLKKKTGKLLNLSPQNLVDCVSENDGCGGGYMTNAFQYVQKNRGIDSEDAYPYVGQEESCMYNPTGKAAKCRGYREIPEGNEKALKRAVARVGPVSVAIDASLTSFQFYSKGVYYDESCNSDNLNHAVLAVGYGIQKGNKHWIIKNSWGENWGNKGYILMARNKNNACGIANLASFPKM
human cathepsin S, sequence (P25774 115-331): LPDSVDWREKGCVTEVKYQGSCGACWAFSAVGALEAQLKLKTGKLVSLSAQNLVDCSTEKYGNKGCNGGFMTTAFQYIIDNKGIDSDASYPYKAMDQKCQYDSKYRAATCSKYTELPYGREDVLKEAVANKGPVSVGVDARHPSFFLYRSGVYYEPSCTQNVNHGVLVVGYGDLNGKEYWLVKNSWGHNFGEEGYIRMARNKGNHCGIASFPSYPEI
Protocol for Caco-2 cells: (§3) This experiment measures transport of inhibitors through the cells of the human gastroenteric canal. The assay uses the well known Caco-2 cells with a passage number between 40 and 60.
(§4) The basolateral and the apical wells will contain 1.5 mL and 0.4 mL transport buffer (TB), respectively, and the standard concentration of the tested substances is 10 μM. Furthermore all test solutions and buffers will contain 1% DMSO. Prior to the experiment the transport plates are pre-coated with culture medium containing 10% serum for 30 minutes to avoid nonspecific binding to plastic material. After 21 to 28 days in culture on filter supports the cells are ready for permeability experiments.
(§5) In ASB screening the TB in basolateral well also contains 1% Bovine Serum Albumin.
(§6) 0.5 mL transport buffer (HBSS, 25 mM MES, pH 6.5) is added to the inserts and the cell monolayers equilibrated in the transport buffer system for 30 minutes at 37° C. in a polymix shaker. After being equilibrated to the buffer system the Transepithelial electrical resistance value (TEER) is measured in each well by an EVOM chop stick instrument. […]
(§7) 300 μL will be taken from the basolateral (receiver) wells at each scheduled time point and the post value of TEER is measured at the end the experiment. […]
FAcum is calculated from: […]
(§8) The determination of permeability coefficients (Papp, cm/s) are calculated from: […]
Protocol for Caco-2 permeability: as §3, §4, §5, §6, §7
FAcum is calculated from: […]
as §8

`OC[C@@H](O)[C@@H](O)[C@H](O)[C@H](O)CO` [Mannitol]: the “% absorption in man” value in data set [1] is reported as 16%.
`CC(C)=C[C@@H]1CN(C(=O)[C@H](CC(C)C)NC(=O)c2ccc(-c3nc(N4CCN(C)CC4)sc3F)cc2)[C@@H]2C(=O)CO[C@H]12` [Example 4, N-[1-6-(dimethylvinyl-3-oxo-hexahydro-furo[3,2-b]pyrrole-4-carbonyl)-3-methyl-butyl]-4-[5-fluoro-2-(4-methyl-piperazin-1-yl)thiazol-4-yl]-benzamide]: the Ki in data set [2] (Test 2 or unnumbered test) was 0.0027 µM; on human cathepsin L (Test 2 or unnumbered test) it was 0.3 µM.
As to `C#C[C@@H]1CN(C(=O)[C@H](CC(C)C)NC(=O)c2ccc(-c3csc(N4CCN(C)CC4)n3)cc2)[C@@H]2C(=O)CO[C@H]12` [Example 1, N-[1-6-(ethynyl-3-oxo-hexahydro-furo[3,2-b]pyrrole-4-carbonyl)-3-methyl-butyl]-4-[2-(4-methyl-piperazin-1-yl)thiazol-4-yl]-benzamide], the Ki is less than 0.05 µM in data set [2] (Test 1, class symbols); 0.0016 µM in data set [2] (Test 2 or unnumbered test); more than 10 µM on human cathepsin S (Test 1, class symbols); 25 µM on human cathepsin S (Test 2 or unnumbered test); 1 to 5 µM at human cathepsin L (Test 1, class symbols); 2 µM on human cathepsin L (Test 2 or unnumbered test). The microsomal CLint was found to be 3 µL/min/mg in data set [3] (whole blood) and 16 µL/min/mg in data set [4].
As to `CC(C)C[C@H](NC(=O)c1ccc(-c2csc(N3CCN(C)CC3)n2)cc1)C(=O)N1C[C@@H](C)[C@H]2OCC(=O)[C@H]21` [comparative example], the “estimated / calculated whole blood half life” value in data set [3] (calculated from whole blood CLint) was “little over an hour”. For the same compound, the figures for the microsomal CLint in data set [3] (whole blood) and in data set [4] were 9 µL/min/mg and 49 µL/min/mg, respectively. In data set [3] (whole blood), this compound displayed a whole blood CLint value of 9 µL/min/mg.
With `C#C[C@@H]1CN(C(=O)[C@H](CC(C)C)NC(=O)c2ccc(-c3csc(N4CCN(C)CC4)n3)c(F)c2)[C@@H]2C(=O)CO[C@H]12` [Example 3, N-[1-6-(ethynyl-3-oxo-hexahydro-furo[3,2-b]pyrrole-4-carbonyl)-3-methyl-butyl]-3-fluoro-4-[2-(4-methyl-piperazin-1-yl)thiazol-4-yl]-benzamide], the Ki in data set [2] (Test 1, class symbols) was less than 0.05 µM; in [2] (Test 2 or unnumbered test), 0.004 µM; at human cathepsin L (Test 1, class symbols) it was 0.501 to 1 µM; at human cathepsin L (Test 2 or unnumbered test) it was 1.4 µM.
The compound “N—((S)-1-((3aS,6R,6aS)-6-methoxy-oxodihydro-2H-furo[3,2-b]pyrrol-4(5H,6H,6aH)-yl)-4-methyl-oxopentan-2-yl)-4-(2-(4-methylpiperazine-1-yl)thiazol-4-yl)benzamide” came in with a papp value with Caco-2 cells of 9e-07 cm/s.
For the compound `N[C@@H](Cc1ccccc1)C(=O)O` [L-Phenylalanine], the “% absorption in man” value in data set [1] is 100%.
For `CN(Cc1cnc2nc(N)nc(N)c2n1)c1ccc(C(=O)N[C@@H](CCC(=O)O)C(=O)O)cc1` [Methotrexate], the “% absorption in man” value in [1] was 20%.
In the case of `C#C[C@@H]1CN(C(=O)[C@H](CC(C)C)NC(=O)c2ccc(-c3nc(N4CCN(C)CC4)sc3F)cc2)[C@@H]2C(=O)CO[C@H]12` [Example 2, N-[1-6-(ethynyl-3-oxo-hexahydro-furo[3,2-b]pyrrole-4-carbonyl)-3-methyl-butyl]-4-[5-fluoro-2-(4-methyl-piperazin-1-yl)thiazol-4-yl]-benzamide], the Ki in [2] (Test 1, class symbols) is less than 0.05 µM; in [2] (Test 2 or unnumbered test), 0.0011 µM; on human cathepsin S (Test 1, class symbols) it was more than 10 µM; at human cathepsin S (Test 2 or unnumbered test), 21 µM; at human cathepsin L (Test 1, class symbols), 1 to 5 µM; on human cathepsin L (Test 2 or unnumbered test), 1.7 µM. In addition, the “in vivo exposure (Cmax or AUC)” value in data set [5] is given as “very much greater”. The same compound registered a Papp at 120 min, 10 µM in “Caco-2 permeability” of 9.1 ×10⁻⁶ cm/s.
For the compound `CC(C)C[C@H](NC(=O)c1ccc(-c2csc(N3CCN(C)CC3)n2)cc1)C(=O)N1C[C@@H](C=C(Br)Br)[C@H]2OCC(=O)[C@H]21` [Ref Ex 9], the Ki on human cathepsin S (Test 2 or unnumbered test) was 6.1 µM.
